Assay results reported in patent US8614205B2, “Glutamate receptor modulators and therapeutic agents” (priority 2009, dated 2013).
“And” between values parts separate entries of the source, which are not always exact repeats. Equal entries are not always repeated.

Assays:
mGluR1 = biological target: T1, mGluR1 (Homo sapiens, UniProt Q13255); assay: aequorin calcium assay, negative allosteric modulation of mGluR1; assay type: cell-based; conditions: for mGluR1/mGluR5 Ratio: EC50 for mGluR1 divided by EC50 for mGluR5; for EC50: aequorin assay, agonist at EC80, 10000 = no activity observed at 10,000 nM
T1 construct: expression induced with doxycycline
Procedure: (§1) The ability of test compound to ameliorate the efflux of calcium cations (Ca^++) in the presence of agonist (glutamate or quisqualate) is measured by detection of light emitted by the luminescent protein aequorin triggered by binding of Ca^++. Aequorin is a photoprotein isolated from luminescent jellyfish (like various Aequorea species e.g. Aequorea victoria). Aequorin is composed of two distinct units, the apoprotein apoaequorin, with an approximate molecular weight of 22 kDa, and the prosthetic group, coelenterazine, responsible for emission of light. In the presence of molecular oxygen the two components of aequorin assemble spontaneously, forming the functional protein. Four EF-hand type regions have been identified in the structure of Aequorin and at least 3 of them function as binding sites for Ca+2 ions: Ca+2 binding to these EF hands triggers a conformational change of the protein, that leads it to oxidize its prosthetic group, coelenterazine, into excited coelenteramide and CO2. As the excited coelenteramide relaxes to the ground state, blue light (wavelength=469 nm) is emitted and can be measured by a luminometer. Negative allosteric modulator activity of test compound is expressed as a percentage of the stimulation of reference agonist (glutamate) activity at its EC80 concentration. Assay of Compounds was performed at Euroscreen SA, Gosselies, Belgium.
(§2) Cells stably transfected with mGlu1 or mGlu5 were grown 18 hours prior to the test in culture medium containing 600 ng/ml doxycycline, then were detached by gentle flushing with PBS-EDTA, recovered by centrifugation and resuspended in “assay buffer” (HBSS, 2.1 mM CaCl2, 3 μg/ml GPT (Glutamate-Pyruvate transaminase), 4 mM MEM Sodium Pyruvate, 0.1% BSA, protease free). Cells were incubated at room temperature for at least 4 h with coelenterazine-h. Dose response curves were performed using mGluR1 cells with the orthosteric agonist glutamate and negative allosteric modulator JNJ16259685. Dose response curves were performed using mGluR5 cells with the orthosteric agonist glutamate and negative allosteric modulator MPEP. For agonist testing, 30 μl of cell suspension were mixed with 30 μl of test compound or reference agonist in a 384-well plate. The resulting emission of light was recorded using the Hamamatsu Functional Drug Screening System 6000 (FDSS 6000). For negative allosteric modulator testing, 60 μl of the resulting cell suspension containing the test compound was mixed with 30 μl of the reference agonist at EC80 following an incubation of 3 min after the first injection. The resulting emission of light was recorded using FDSS 6000. […] Plates also contained the reference agonist at a concentration equivalent to the EC80 obtained during the test validation. Negative allosteric modulator activity of test compound was expressed as a percentage of the stimulation of reference agonist activity at its EC80 concentration.

mGluR5 = biological target: T2, mGluR5 (Homo sapiens, UniProt P41594); assay: aequorin calcium assay, negative allosteric modulation of mGluR5; assay type: cell-based; conditions: aequorin assay, agonist at EC80; 10000 = no activity observed at 10,000 nM; read-out: mGluR5 EC50
T2 construct: expression induced with doxycycline
Procedure: as §1, §2

[1] = tested on: hyperalgesia in partial sciatic nerve ligation rat; assay: partial sciatic nerve ligation (PSN) model of neuropathic pain, paw withdrawal method; assay type: in vivo; conditions: 100 μg intrathecal; for % MPE (0-100) 1 hr / Paw withdrawal thresholds (g; raw data) 1 hr / Raw MPE (%) 1 hr / % MPE (0-100) 3 hrs / Paw withdrawal thresholds (g; raw data) 3 hrs / Raw MPE (%) 3 hrs / % MPE (0-100) 5 hrs / Paw withdrawal thresholds (g; raw data) 5 hrs / Raw MPE (%) 5 hrs / % MPE (0-100) 24 hrs / Paw withdrawal thresholds (g; raw data) 24 hrs / Raw MPE (%) 24 hrs: PSN Sx rat
Procedure: Briefly, under gas anesthesia, the skin and muscles of the thigh were reflected to expose the sciatic nerve. About one-third to one-half of the cross-sectional area of the nerve was tightly ligated using a 7-0 nylon suture. The incision was closed in layers (suture for muscle, surgical adhesive for skin). […] Treated rats were assayed at 1, 3, 5, and 24 hr using the paw withdrawal method (L. Randall and J. Selitto, 1957, Arch. Int. Pharmacodynam., 111:409-19). […] The Partial sciatic nerve ligation assay was performed at Eurofins/Product Safety Laboratories (Dayton, N.J.).
Animals were housed in cages which conform to the size recommendations in the most recent NIH Guide for the Care and Use of Laboratory Animals. […] The animals were fed Purina Rodent Chow #5012. The animals were acclimated to the facility for 7 days prior to the study. A pre-operative baseline paw withdrawal measure was collected for all rats. […] After recovery, a pre-dosing baseline paw withdrawal threshold was collected for all rats. […] Rats were lightly anesthetized and treated with test article or vehicle. Paw withdrawal thresholds were determined at one, three, five, and 24 hours post dosing. […] Briefly, under gas anesthesia, the skin and muscles of the thigh were reflected to expose the sciatic nerve. About one third to one half of the cross-sectional area of the nerve was tightly ligated using a 7-0 nylon suture. The incision was closed in layers (suture for muscle, surgical adhesive for skin). Test article or vehicle was administered by transcutaneous injection (C. Mestre et al., 1994, J. Pharm. Tox. Meth., 32:197-200). Briefly, the rat was lightly anesthetized and placed to flex the lower lumbar vertebrae. After palpating the vertebral processes, a 26 gauge needle was inserted through a vertebral interspace. The presence of a tail flick was considered validation of the needle placement; the solution was then injected. Paw withdrawal thresholds were assessed using a paw pressure device (L. O. Randall & J. J. Selitto, 1957, Arch. Int. Pharmacodyn., 111:409-19). The behavioral endpoint was defined as paw withdrawal. Data was analyzed by two-way analysis of variance (repeated measures) with Bonferroni tests at individual time points. Paw withdrawal threshold raw values were used for the analysis, and each route of administration was analyzed separately. Vehicle-treated groups were used as the statistical comparison groups.

T1 sequence (Q13255 19-1194): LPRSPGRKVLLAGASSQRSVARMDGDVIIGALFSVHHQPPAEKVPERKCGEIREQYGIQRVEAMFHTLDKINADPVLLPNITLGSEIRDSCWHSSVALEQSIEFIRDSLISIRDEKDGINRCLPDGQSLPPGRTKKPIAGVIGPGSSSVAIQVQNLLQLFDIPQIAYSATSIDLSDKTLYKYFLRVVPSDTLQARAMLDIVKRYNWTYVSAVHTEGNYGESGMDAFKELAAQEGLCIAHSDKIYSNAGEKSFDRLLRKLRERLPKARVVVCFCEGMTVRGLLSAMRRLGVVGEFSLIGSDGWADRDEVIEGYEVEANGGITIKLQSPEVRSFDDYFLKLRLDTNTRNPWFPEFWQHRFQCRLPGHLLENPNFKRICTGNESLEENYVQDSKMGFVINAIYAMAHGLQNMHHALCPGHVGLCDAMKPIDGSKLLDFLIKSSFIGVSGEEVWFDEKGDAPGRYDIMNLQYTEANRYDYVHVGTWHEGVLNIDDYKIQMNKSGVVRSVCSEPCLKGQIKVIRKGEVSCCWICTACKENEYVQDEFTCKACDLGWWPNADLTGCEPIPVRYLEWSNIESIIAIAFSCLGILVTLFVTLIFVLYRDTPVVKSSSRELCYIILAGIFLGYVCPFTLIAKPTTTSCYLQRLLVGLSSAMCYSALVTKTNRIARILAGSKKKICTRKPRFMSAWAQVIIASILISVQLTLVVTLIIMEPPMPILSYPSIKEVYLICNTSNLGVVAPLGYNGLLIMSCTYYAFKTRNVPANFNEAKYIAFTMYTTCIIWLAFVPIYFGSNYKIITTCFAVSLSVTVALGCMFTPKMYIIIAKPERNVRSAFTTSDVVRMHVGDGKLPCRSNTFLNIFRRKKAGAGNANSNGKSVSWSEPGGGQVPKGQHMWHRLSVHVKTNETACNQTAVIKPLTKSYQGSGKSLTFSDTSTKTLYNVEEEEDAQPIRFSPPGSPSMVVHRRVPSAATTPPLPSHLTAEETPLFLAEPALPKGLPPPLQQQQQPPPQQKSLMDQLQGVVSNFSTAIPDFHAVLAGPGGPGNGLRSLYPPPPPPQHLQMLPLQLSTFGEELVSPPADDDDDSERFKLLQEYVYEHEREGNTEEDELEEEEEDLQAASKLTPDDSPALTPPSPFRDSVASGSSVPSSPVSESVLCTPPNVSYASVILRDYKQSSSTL
T2 sequence (P41594 21-1212): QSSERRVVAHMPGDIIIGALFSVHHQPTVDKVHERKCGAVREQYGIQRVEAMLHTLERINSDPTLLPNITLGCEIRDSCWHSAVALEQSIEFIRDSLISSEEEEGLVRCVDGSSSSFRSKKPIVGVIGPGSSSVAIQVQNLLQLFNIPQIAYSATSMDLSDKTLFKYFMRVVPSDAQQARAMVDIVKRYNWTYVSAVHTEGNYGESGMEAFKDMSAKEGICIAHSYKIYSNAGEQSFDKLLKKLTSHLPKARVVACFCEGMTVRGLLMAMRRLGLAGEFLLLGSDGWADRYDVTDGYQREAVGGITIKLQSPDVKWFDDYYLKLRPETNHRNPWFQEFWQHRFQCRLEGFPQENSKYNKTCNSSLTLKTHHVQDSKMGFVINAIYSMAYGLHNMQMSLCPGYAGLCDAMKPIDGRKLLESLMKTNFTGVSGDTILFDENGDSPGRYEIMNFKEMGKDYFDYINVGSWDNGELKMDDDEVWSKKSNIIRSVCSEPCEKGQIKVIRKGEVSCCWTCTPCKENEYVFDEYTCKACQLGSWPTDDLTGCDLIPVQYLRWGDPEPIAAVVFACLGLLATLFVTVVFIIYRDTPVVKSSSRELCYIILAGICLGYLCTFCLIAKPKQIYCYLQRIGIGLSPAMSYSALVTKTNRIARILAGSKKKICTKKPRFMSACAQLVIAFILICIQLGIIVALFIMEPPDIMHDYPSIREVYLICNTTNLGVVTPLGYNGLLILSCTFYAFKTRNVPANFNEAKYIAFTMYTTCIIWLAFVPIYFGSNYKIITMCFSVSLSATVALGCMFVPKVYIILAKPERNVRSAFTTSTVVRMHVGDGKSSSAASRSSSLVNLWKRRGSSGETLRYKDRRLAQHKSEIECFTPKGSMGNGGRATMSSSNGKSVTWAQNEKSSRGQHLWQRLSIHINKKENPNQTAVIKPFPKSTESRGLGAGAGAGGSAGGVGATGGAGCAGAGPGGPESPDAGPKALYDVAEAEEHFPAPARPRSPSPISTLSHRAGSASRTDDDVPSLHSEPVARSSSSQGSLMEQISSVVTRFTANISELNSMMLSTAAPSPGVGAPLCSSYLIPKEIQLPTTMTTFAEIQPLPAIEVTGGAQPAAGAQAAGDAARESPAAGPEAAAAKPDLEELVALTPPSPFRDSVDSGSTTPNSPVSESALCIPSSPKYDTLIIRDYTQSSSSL

## O=C(Nc1ccc([N+](=O)[O-])cc1Cl)c1cc(Cl)cc(Cl)c1O [Compound 2, 3,5-dichoro-N-(2-chloro-4-nitrophenyl)-2 hydroxybenzamide]
mGluR1
  mGluR1/mGluR5 Ratio: 2.36
  EC50: 1580 nM
mGluR5
  EC50: 669 nM

## O=C(Nc1ccc([N+](=O)[O-])cc1Cl)c1ccccc1O [Compound 4, N-(2-chloro-4-nitrophenyl)-2 hydroxybenzamide]
mGluR1
  mGluR1/mGluR5 Ratio: 1.73
  EC50: 290 nM
mGluR5
  EC50: 168 nM

## O=C(Nc1ccc(Cl)c(Cl)c1)c1cc(Cl)ccc1O [Compound 5]
mGluR1
  mGluR1/mGluR5 Ratio: 1.99
  EC50: 179 nM
mGluR5
  EC50: 90 nM

## O=C(Nc1ccccc1)c1cc(Cl)ccc1O [Compound 6]
mGluR1
  mGluR1/mGluR5 Ratio: 4.16
  EC50: 3040 nM
mGluR5
  EC50: 731 nM

## Cc1cccc(NC(=O)c2cc(Cl)ccc2O)c1 [Compound 8]
mGluR1
  mGluR1/mGluR5 Ratio: 28.40
  EC50: 2390 nM
mGluR5
  EC50: 84 nM

## O=C(Nc1cccc(Br)c1)c1cc(Cl)ccc1O [Compound 9]
mGluR1
  mGluR1/mGluR5 Ratio: 2.77
  EC50: 459 nM
mGluR5
  EC50: 166 nM

## C#Cc1cccc(NC(=O)c2cc(Cl)ccc2O)c1 [Compound 10]
mGluR1
  mGluR1/mGluR5 Ratio: 7.64
  EC50: 932 nM
mGluR5
  EC50: 122 nM

## C=Cc1cccc(NC(=O)c2cc(Cl)ccc2O)c1 [Compound 11, 5-Chloro-2-hydroxy-N-(3-vinylphenyl)benzamide]
mGluR1
  mGluR1/mGluR5 Ratio: 7.73
  EC50: 371 nM
mGluR5
  EC50: 48 nM

## CCc1cccc(NC(=O)c2cc(Cl)ccc2O)c1 [Compound 12, 5-Chloro-2-hydroxy-N-(3-ethylphenyl)benzamide]
mGluR1
  mGluR1/mGluR5 Ratio: 6.36
  EC50: 859 nM
mGluR5
  EC50: 135 nM

## O=C(Nc1cccc(C(F)(F)F)c1)c1cc(Cl)ccc1O [Compound 13]
mGluR1
  mGluR1/mGluR5 Ratio: 2.15
  EC50: 273 nM
mGluR5
  EC50: 127 nM

## O=C(Nc1cccc(Cl)c1)c1cc(Cl)ccc1O [Compound 14]
mGluR1
  mGluR1/mGluR5 Ratio: 4.15
  EC50: 523 nM
mGluR5
  EC50: 126 nM

## N#Cc1cccc(NC(=O)c2cc(Cl)ccc2O)c1 [Compound 16, 5-Chloro-N-(3-cyanophenyl)-2-hydroxybenzamide]
mGluR1
  mGluR1/mGluR5 Ratio: 42.55
  EC50: > 10000 nM
mGluR5
  EC50: 235 nM

## O=C(Nc1cccc(F)c1)c1cc(Cl)ccc1O [Compound 17]
mGluR1
  mGluR1/mGluR5 Ratio: 4.33
  EC50: 598 nM
mGluR5
  EC50: 138 nM

## CC(C)(C)c1cccc(NC(=O)c2cc(Cl)ccc2O)c1 [Compound 18, 5-Chloro-N-(3-tert-butylphenyl)-2-hydroxybenzamide]
mGluR1
  mGluR1/mGluR5 Ratio: 1.40
  EC50: 334 nM
mGluR5
  EC50: 238 nM

## Cc1cc(C)cc(NC(=O)c2cc(Cl)ccc2O)c1 [Compound 19]
mGluR1
  mGluR1/mGluR5 Ratio: 9.39
  EC50: 1140 nM
mGluR5
  EC50: 122 nM

## O=C(Nc1cc(C(F)(F)F)cc(C(F)(F)F)c1)c1cc(Cl)ccc1O [Compound 20]
mGluR1
  mGluR1/mGluR5 Ratio: 1.22
  EC50: 111 nM
mGluR5
  EC50: 91 nM

## CN(C)C(=O)Oc1ccc(Cl)cc1C(=O)Nc1ccc([N+](=O)[O-])cc1Cl [Compound 23, 4-chloro-2-(2-chloro-4-nitrophenylcarbamoyl)phenyl dimethyl carbamate]
mGluR1
  EC50: > 10000 nM
mGluR5
  EC50: > 10000 nM

## COC(=O)[C@@H]1CCCN1C(=O)Oc1ccc(Cl)cc1C(=O)Nc1ccc([N+](=O)[O-])cc1Cl [Compound 25]
mGluR1
  EC50: > 10000 nM
mGluR5
  EC50: > 10000 nM

## CC(C)(C)OC(=O)[C@@H]1CCCN1C(=O)Oc1ccc(Cl)cc1C(=O)Nc1ccc([N+](=O)[O-])cc1Cl [Compound 26]
mGluR1
  EC50: > 10000 nM
mGluR5
  EC50: > 10000 nM

## O=C(Nc1ccc([N+](=O)[O-])cc1Cl)c1cc(Cl)ccc1OC(=O)N1CCC[C@H]1C(=O)O [Compound 27]
mGluR1
  EC50: > 10000 nM
mGluR5
  EC50: > 10000 nM

## NCC1(CC(=O)O)CCCCC1 [Gabapentin, gabapentin, reference compound]
[1]; group Average (N 6)
  % MPE (0-100) 1 hr: 63.2%
  Paw withdrawal thresholds (g; raw data) 1 hr: 165.0 g
  Raw MPE (%) 1 hr: 77.4%
  % MPE (0-100) 3 hrs: 43.5%
  Paw withdrawal thresholds (g; raw data) 3 hrs: 134.2 g
  Raw MPE (%) 3 hrs: 47.7%
  % MPE (0-100) 5 hrs: 17.4%
  Paw withdrawal thresholds (g; raw data) 5 hrs: 96.7 g
  Raw MPE (%) 5 hrs: −0.6%
  % MPE (0-100) 24 hrs: 16.4%
  Paw withdrawal thresholds (g; raw data) 24 hrs: 98.3 g
  Raw MPE (%) 24 hrs: 6.7%
[1]; individual rat
  % MPE (0-100) 1 hr: 53.9% and 100.0% (3×) and 0.8% and 24.4%
  Paw withdrawal thresholds (g; raw data) 1 hr: 145 g and 250 g and 190 g and 100 g and 120 g and 185 g
  Raw MPE (%) 1 hr: 53.9% and 177.6% and 106.9% and 0.8% and 24.4% and 101.0%
  % MPE (0-100) 3 hrs: 0.0% (2×) and 34.6% (2×) and 91.7% and 100.0%
  Paw withdrawal thresholds (g; raw data) 3 hrs: 70 g and 125 g (2×) and 90 g and 165 g and 230 g
  Raw MPE (%) 3 hrs: −43.8% and 34.6% (2×) and −15.3% and 91.7% and 184.4%
  % MPE (0-100) 5 hrs: 0.0% (3×) and 43.6% and 3.8% and 56.9%
  Paw withdrawal thresholds (g; raw data) 5 hrs: 60 g and 130 g and 85 g and 100 g and 140 g and 65 g
  Raw MPE (%) 5 hrs: −49.3% and 43.6% and −16.1% and 3.8% and 56.9% and −42.7%
  % MPE (0-100) 24 hrs: 0.0% (3×) and 23.3% and 58.7% and 16.2%
  Paw withdrawal thresholds (g; raw data) 24 hrs: 85 g and 110 g and 80 g and 75 g and 135 g and 105 g
  Raw MPE (%) 24 hrs: −12.1% and 23.3% and −19.2% and −26.3% and 58.7% and 16.2%
[1]; rat
  reversing hyperalgesia: effective in reversing hyperalgesia
